Laboratory results published in US12697316B2, “Combination therapy with acetyl-leucine and miglustat” (INTRABIO LTD., priority 2019, dated 2026).

Assays:
Npc1^−/− mice [1] = assay: Cerebellar immunohistochemistry (Purkinje cells, CD68 microglia) in Npc1−/− mice; type: in vivo, mouse; details: for Purkinje cell survival in any cerebellar lobules / reduction of frequency of CD68 positive activated microglia: compared to Npc1−/− UT; for reduction of frequency of CD68 positive activated microglia: cerebellum
Procedure: (§1) ADLL and enantiomers (ADLL: Molekula #73891210, ALL: Sigma Aldrich #441511, ADL: Sigma #A0876) were administered as dry admix in powdered mouse diet (PicoLab Rodent Diet 20/5053, LabDiet) at a dose of 0.1 g/kg/day for in vivo studies. Treatment groups for in vivo study consisted of at least 5 mice per group. In vitro studies were conducted with each compound dissolved in PBS to generate a 50 mM stock solution and diluted to a 1 mM working concentration in media (DMEM High Glucose-Gibco #10566016).
(§2) Biochemical and immunohistochemical analyses. Mice were saline perfused under terminal anaesthesia. Tissues for biochemical analysis were snap-frozen on ice-cold isopentane. For immunofluorescent staining, tissues were perfused with 4% PFA followed by PBS and kept in 4% PFA for 24h and stored in PBS containing 20% sucrose longer term. Brains were cut parasagitally (20 micron sections) and stored in 30% ethylene glycol, 30% glycerol 0.1 M sodium phosphate buffer (pH 7.4) at −20° C. Biochemical analysis was performed on water-homogenised tissues (50 mg/ml) and protein content was determined using a BCA protein assay (Thermo Fisher #23227) according to the manufacturer's instructions.
Immunohistochemistry: Free-floating brain sections in glycerol/ethylene were rinsed 3 times with PBS and blocked with 2% goat serum in 0.3% PBS Triton at room temperature. Sections were stained with primary antibodies; rabbit Calbindin (1:2000) and rat CD68 (1:500) in 2% goat serum in 0.3% PBS for 16 hours at 4° C., followed by washing with 0.3% PBS Triton, then 3 times with PBS. Secondary antibody staining (Alexa Fluor 597 Goat anti rabbit Far Red, Alexa Fluor 488 Goat anti rat) was conducted at room temperature for 2 hours. Samples were washed once with 0.3% PBS Triton, 3 times with PBS and manually mounted on slides. Slides left on the bench overnight to dry the sections followed by application of ProLong Gold (Invitrogen, #P36930).
Image Acquisition and Quantification: Brain sections and CHO cells imaging was performed with a Leica-SP8 confocal microscope in tile imaging mode. Western blot data acquisition was conducted with LiCOR Odyssey Infrared Imaging system model no 9120. Mean fluorescence values, cerebellum diameters and areas, cell quantifications were calculated with Fuji Version 1.0 software.

Npc1^−/− mice [2] = assay: Lipid storage (GSLs, sphingoid bases, cholesterol) in liver of Npc1−/− mice; type: in vivo, mouse; parameters: reduction of liver GSL levels (total) / reduction of GM2Gc in liver / reduction of sphingosine in liver / reduction of sphinganine in liver / reduction of GM3Gc in liver: concentration or dose not given beside the values; details: 59 days of age
Procedure: as §1, §2
Sphingoid Base Measurements: Sphingoid bases (sphingosine and sphinganine) were extracted from 100 uL tissue homogenates in 500 uL of chloroform:methanol (1:2v/v) followed by sonication for 10 minutes at room temperature. Subsequently, 1 M 500-uL sodium chloride, 500 uL chloroform, and 3 M 100 uL sodium hydroxide were added to the samples, and vortexed every five minutes for 15 minutes at room temperature. Homogenates were centrifuged (13,000 g for 10 minutes) and the lower organic phase retained. Sphingoid bases were purified from the samples by pre-equilibrating SPA-NH2 columns with 2×1 mL chloroform followed by sample elution with 3×300 ul acetone. The samples were dried under nitrogen. Lipids were resuspended in 50 uL pre-warmed ethanol (37° C.) and 50 uL OPA labelling solution (1 mg OPA/20 uL Ethanol/1 uL 2-mercaptoethanol; dilution 1:2000 in 3% boric acid pH 10.5) was added. Samples were kept at room temperature in the dark for 20 minutes and vortexed every 10 minutes. Samples were buffered with 100 uL methanol: 5 mM Tris pH 7 (9:1) and centrifuged at 5,000 g for 2 minutes. Supernatants (150 uL) were loaded onto a reverse phase HPLC. Chromatography was carried out using a mobile phase of 85% acetonitrile/15% H2O at a flow rate of 1.0 ml/min. The orthophthaldehyde-labelled derivatives were monitored at an excitation wavelength of 340 nm and an emission wavelength of 450 nm. Quantification of trace peak area was carried out using EZChrom Elite software v3.2.1.
Glycosphingolipid measurements: Glycosphingolipids were extracted and measured by NP-HPLC according to published methods. Tissue homogenates in chloroform/methanol (C:M) (1:2 v/v) overnight at 4° C. The mixture was centrifuged (3000 rpm/10 min) and 1 mL chloroform and 1 mL PBS were added to the supernatant and centrifuged (3000 rpm/10 min). The lower phase was dried under N2, resuspended in 50 uL C:M 1:3 v/v and combined with the upper phase. Subsequently, GSLs were recovered using C18 Isolute columns (100 mg) (Biotage) pre-equilibrated with 4×1 mL MeOH and 2×1 mL H2O. Samples were washed 3×1 mL H2O and eluted with 1 mL C:M 98:2, 2×1 mL C:M 1:3, 1 mL MeOH. The column eluate was dried under N2, resuspended in 100 uL C:M 2:1, dried again under N2 and resuspended in ceramide glycanase (CGase) buffer (50 mM sodium acetate pH 5.5, 1 mg/mL sodium taurodeoxycholate). 50 mU CGase was added, and samples incubated at 37° C. overnight. Released oligosaccharides were anthranilic acid (2-AA) labelled and purified by mixing with 1 mL Acetonitrile: H2O 97:3 and added to Discovery DPA-6S columns (SUPELCO, # 52625-U) pre-equilibrated with 1 mL acetonitrile, 2×1 mL H2O, and 2×1 mL acetonitrile. Columns were washed with 2×1 mL Acetonitrile: H2O 95:5 v/v, and eluted in 2×0.75 mL H2O. […]

[3] = 59 days of age, relative to untreated Npc1−/− littermates

Row | SMILES | Purkinje cell survival in any cerebellar lobules (Npc1^−/− mice [1]; 59 days of age) | long term neuroprotective effects (Npc1^−/− mice [1]; Npc1−/− mice) | reduction of frequency of CD68 positive activated microglia (Npc1^−/− mice [1]; 59 days of age) | decrease of total free cholesterol in liver (Npc1^−/− mice [2]) [%] | reduction of sphinganine in liver (Npc1^−/− mice [2]) [%] | reduction of sphingosine in liver (Npc1^−/− mice [2]) [%] | reduction of GM2Gc in liver (Npc1^−/− mice [2]; vs untreated Npc1−/−) [%] | reduction of liver GSL levels (total) (Npc1^−/− mice [2]; vs untreated Npc1−/−) [%] | more Purkinje cells in lobule III (Npc1^−/− mice [1]; [3]) [%] | more Purkinje cells in lobules I and II (Npc1^−/− mice [1]; [3]) [%] | reduction of GM3Gc in liver (Npc1^−/− mice [2]; vs untreated Npc1−/−) [%]
1 | CC(=O)N[C@H](CC(C)C)C(=O)O [ADL, N-acetyl-D-leucine] | did not significantly improve | did not mediate any long term, neuroprotective effects | did not have a significant impact | 16.2 | 38.5 | 33.6 | 29 | 26.9 | – | – | –
2 | CC(=O)NC(CC(C)C)C(=O)O (racemic) [ADLL, N-acetyl-DL-leucine] | – | – | did not have a significant impact | 18.2 | 32.5 | 29.5 | 26.7 | 26.9 | 402 | 133 | –
3 | CC(=O)N[C@@H](CC(C)C)C(=O)O [ALL, N-acetyl-L-leucine] | did not significantly improve | – | 20% | 23.4 | 37.4 | 33.2 | 45 | 45.6 | – | – | 54.8
